Converted amounts (≈) assume the structure as drawn.
What was measured:
Toll-like receptor 9 [1] = target: T1, Toll-like receptor 9 (Homo sapiens, UniProt Q9NR96); test: Antagonist activity at human TLR9 expressed in HEK-blue hTLR9 cells assessed as inhibition of CpGB-induced NFkappaB activation preincubated with compound for 1 hrs followed by CpGB addition and measured next day by SEAP-based spectrophotometry assay; type: cell-based
T1 sequence (Q9NR96 whole entry): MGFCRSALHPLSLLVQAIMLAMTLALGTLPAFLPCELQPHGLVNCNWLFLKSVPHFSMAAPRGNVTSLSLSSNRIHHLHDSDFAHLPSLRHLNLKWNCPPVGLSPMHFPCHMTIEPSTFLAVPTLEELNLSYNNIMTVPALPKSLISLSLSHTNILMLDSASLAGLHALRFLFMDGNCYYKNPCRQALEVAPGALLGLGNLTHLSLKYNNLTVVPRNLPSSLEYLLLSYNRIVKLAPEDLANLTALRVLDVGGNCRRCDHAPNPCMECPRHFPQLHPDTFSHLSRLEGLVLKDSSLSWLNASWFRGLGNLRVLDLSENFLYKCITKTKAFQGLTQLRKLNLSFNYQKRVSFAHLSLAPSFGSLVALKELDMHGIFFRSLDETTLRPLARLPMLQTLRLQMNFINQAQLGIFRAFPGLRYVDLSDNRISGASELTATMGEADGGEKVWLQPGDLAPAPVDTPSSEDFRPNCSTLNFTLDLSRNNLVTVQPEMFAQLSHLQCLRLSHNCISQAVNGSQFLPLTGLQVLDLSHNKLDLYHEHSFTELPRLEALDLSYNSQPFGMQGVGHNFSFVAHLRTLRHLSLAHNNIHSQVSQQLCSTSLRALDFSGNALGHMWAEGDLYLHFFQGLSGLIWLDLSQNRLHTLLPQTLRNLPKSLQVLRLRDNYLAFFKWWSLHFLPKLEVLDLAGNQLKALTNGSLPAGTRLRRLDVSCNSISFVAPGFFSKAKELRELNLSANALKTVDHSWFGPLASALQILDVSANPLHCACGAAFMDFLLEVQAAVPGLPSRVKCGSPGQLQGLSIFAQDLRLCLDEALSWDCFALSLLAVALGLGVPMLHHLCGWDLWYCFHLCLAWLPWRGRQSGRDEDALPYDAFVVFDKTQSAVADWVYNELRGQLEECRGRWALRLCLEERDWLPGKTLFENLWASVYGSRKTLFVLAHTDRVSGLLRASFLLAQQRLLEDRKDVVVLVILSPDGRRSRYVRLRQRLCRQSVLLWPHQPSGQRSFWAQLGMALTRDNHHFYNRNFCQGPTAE

physchem [2] = conditions: octanol/water
Description: 1-Octanol/phosphate buffer partition coefficient, logD of the compound measured after 4.5 hrs by HPLC-UV analysis

physchem [3] = conditions: buffer, pH 7.4
[4] = Stability in mouse plasma assessed as parent compound remaining at 1 uM measured after 2 hrs by LC-MS/MS analysis
[5] = Stability in human plasma assessed as parent compound remaining at 1 uM measured after 2 hrs by LC-MS/MS analysis
Toll-like receptor 7 = target: T2, Toll-like receptor 7 (Homo sapiens, UniProt Q9NYK1)
T2 sequence (Q9NYK1 whole entry): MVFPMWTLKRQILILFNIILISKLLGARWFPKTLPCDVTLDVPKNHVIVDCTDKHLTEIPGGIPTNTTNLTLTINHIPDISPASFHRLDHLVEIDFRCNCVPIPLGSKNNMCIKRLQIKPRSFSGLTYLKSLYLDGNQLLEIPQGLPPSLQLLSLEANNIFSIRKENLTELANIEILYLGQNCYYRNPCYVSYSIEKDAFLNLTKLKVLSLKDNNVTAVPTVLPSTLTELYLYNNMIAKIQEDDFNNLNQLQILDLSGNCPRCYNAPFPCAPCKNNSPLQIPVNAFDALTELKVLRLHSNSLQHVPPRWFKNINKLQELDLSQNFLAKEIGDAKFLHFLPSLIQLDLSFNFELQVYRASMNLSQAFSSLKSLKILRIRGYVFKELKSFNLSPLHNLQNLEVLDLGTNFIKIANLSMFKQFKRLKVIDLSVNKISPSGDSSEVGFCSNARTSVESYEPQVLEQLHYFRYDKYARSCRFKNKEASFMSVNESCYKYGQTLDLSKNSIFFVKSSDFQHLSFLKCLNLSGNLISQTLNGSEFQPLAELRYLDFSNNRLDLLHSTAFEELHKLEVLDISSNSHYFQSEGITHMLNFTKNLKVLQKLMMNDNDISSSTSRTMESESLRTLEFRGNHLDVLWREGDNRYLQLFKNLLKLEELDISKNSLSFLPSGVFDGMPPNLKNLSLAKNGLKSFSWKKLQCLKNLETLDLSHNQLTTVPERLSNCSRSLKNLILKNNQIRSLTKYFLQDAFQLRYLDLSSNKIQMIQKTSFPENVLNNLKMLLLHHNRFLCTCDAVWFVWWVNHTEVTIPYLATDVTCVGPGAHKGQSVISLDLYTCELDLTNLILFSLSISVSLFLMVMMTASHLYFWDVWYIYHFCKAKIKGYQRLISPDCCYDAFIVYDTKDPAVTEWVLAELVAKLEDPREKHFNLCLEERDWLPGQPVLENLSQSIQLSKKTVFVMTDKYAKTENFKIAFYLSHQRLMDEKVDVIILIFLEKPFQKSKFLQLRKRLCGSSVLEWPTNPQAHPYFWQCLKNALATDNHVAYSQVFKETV

in vitro [6] = conditions: human, microsomes
Description: Metabolic stability in human liver microsomes assessed as half life at 5 uM measured for 60 mins by LC-MS/MS analysis

in vitro [7] = conditions: mouse, microsomes
Description: Metabolic stability in mouse liver microsomes assessed as half life at 5 uM measured for 60 mins by LC-MS/MS analysis

Toll-like receptor 8 = target: T3, Toll-like receptor 8 (Homo sapiens, UniProt Q9NR97)
T3 sequence (Q9NR97 whole entry): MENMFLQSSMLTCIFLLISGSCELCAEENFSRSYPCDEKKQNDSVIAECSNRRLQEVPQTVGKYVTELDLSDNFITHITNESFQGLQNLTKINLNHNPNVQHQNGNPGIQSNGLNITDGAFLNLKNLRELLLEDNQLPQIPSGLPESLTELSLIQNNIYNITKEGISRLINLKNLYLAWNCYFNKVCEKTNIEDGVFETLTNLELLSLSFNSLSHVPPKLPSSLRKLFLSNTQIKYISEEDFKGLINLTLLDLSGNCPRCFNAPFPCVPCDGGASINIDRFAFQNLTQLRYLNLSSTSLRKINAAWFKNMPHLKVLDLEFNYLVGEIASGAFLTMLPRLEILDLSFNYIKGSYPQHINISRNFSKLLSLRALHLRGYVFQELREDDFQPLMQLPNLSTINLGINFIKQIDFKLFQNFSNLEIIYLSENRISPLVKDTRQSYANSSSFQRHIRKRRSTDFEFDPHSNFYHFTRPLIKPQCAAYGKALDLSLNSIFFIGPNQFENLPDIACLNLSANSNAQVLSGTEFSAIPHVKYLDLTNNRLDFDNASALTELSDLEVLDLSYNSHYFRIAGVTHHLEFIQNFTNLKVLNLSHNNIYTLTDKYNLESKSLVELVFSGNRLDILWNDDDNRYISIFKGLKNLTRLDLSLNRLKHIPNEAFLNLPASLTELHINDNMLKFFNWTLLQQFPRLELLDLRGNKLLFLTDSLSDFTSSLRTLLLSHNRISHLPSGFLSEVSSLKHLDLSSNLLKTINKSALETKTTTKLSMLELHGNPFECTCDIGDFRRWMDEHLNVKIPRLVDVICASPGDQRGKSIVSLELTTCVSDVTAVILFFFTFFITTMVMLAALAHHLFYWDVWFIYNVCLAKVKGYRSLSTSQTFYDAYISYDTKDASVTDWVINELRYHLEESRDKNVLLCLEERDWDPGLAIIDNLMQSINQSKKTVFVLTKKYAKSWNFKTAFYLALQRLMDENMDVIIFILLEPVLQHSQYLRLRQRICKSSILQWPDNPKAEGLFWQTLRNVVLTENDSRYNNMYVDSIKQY

[8] = Apparent permeability across apical to basolateral side in human Caco-2 cells measured after 120 mins by LC-MS/MS analysis
[9] = Apparent permeability across basolateral to apical side in human Caco-2 cells measured after 120 mins by LC-MS/MS analysis
[10] = Efflux ratio of apparent permeability across basolateral to apical side to apical to basolateral side in human Caco-2 cells measured after 120 mins by LC-MS/MS analysis
Toll-like receptor 9 [11] = target: T1, Toll-like receptor 9

| IC50 (Toll-like receptor 9 [1]) [nM] | solubility kinetic at 24 h, 500 µM (physchem [3]) [µg/mL] | remaining at 2 h, 1 µM [4] [%] | remaining at 2 h, 1 µM [5] [%] | IC50 (Toll-like receptor 7) [nM] | Compound | other results |
| --- | --- | --- | --- | --- | --- | --- |
| 44 | 46.1 (≈ 131 µM) | 92.8 | 60.4 | 1230 | COc1ccc(-c2cn3ccc(N4CCN(C(C)C)CC4)cc3n2)cc1 | logD at 4.5 h (physchem [2]): 1.64; half-life at 1 h, 5 µM (in vitro [6]): 66 min; half-life at 1 h, 5 µM (in vitro [7]): 29.4 min |
| 19 | – | – | – | – | COc1ccc(-c2cn3ccc(NCCCN4CCCC4)cc3n2)c(OC)c1 | IC50 (Toll-like receptor 8): 17200 nM |
| 28 | 2.6 (≈ 5 µM) | 90.6 | 94.3 | 478 | COc1ccc(-c2cn3ccc(N4CCN(C5CCCC5)CC4)cc3n2)c(OCCCN2CCOCC2)c1 | Papp A→B at 2 h [8]: 15.4 ×10⁻⁶ cm/s; Papp B→A at 2 h [9]: 8.17 ×10⁻⁶ cm/s; efflux ratio at 2 h [10]: 0.5 |
| – | – | – | – | – | CC(C)NCC(O)COc1cccc2ccccc12 (centres undefined) [PROPRANOLOL] | Papp A→B at 2 h [8]: 14.4 ×10⁻⁶ cm/s; Papp B→A at 2 h [9]: 17.3 ×10⁻⁶ cm/s; efflux ratio at 2 h [10]: 1.2 |
| 49 | 10.2 (≈ 25.1 µM) | 93.4 | 64.9 | 2340 | COc1ccc(-c2cn3ccc(N4CCN(C5CCCC5)CC4)cc3n2)c(OC)c1 | logD at 4.5 h (physchem [2]): 2.13; half-life at 1 h, 5 µM (in vitro [6]): 37.6 min; half-life at 1 h, 5 µM (in vitro [7]): 31.8 min |
| 40 | – | – | – | – | COc1ccc(-c2cn3ccc(N4CCN(C(C)C)CC4)cc3n2)c(OC)c1 | IC50 (Toll-like receptor 9 [11]): 28 nM |

| Compound | IC50 (Toll-like receptor 9 [1]) [nM] | solubility kinetic at 24 h, 500 µM (physchem [3]) [µg/mL] | remaining at 2 h, 1 µM [4] [%] | remaining at 2 h, 1 µM [5] [%] | IC50 (Toll-like receptor 7) [nM] | other results |
| --- | --- | --- | --- | --- | --- | --- |
| CCCSc1ccc2nc(NC(=O)OC)[nH]c2c1 [ALBENDAZOLE] | – | 2.2 (≈ 8.29 µM) | – | – | – | – |
| CC(C)[N+](C)(CCOC(=O)C1c2ccccc2Oc2ccccc21)C(C)C [PROPANTHELINE] | – | – | 0 | 0 | – | – |

Source: ChEMBL document CHEMBL5126608, “Development, Optimization, and In Vivo Validation of New Imidazopyridine Chemotypes as Dual TLR7/TLR9 Antagonists through Activity-Directed Sequential Incorporation of Relevant Structural Subunits” (J Med Chem, 2022)
